Measurements reported in the NIST ThermoML archive (doi:10.1021/je700339f).
Numbers after ± are expanded uncertainties.

Assay: xn = mol fraction of the nth substance listed
Details: 298 K, Liquid

ClCCCCCl [1,4-dichlorobutane] + CN(C)C=O
mass density [kg/m3]
Details | x2 = 0.1003 | x2 = 0.1923 | x2 = 0.2994 | x2 = 0.4006 | x2 = 0.5022 | x2 = 0.6004 | x2 = 0.7029 | x2 = 0.7943 | x2 = 0.9006
100 kPa | 1119 ± 4.3 | 1105.1 ± 4.3 | 1087.9 ± 4.2 | 1071.2 ± 4.3 | 1052.4 ± 4.4 | 1034 ± 4.5 | 1013.1 ± 4.7 | 993.4 ± 4.9 | 968.9 ± 5.1
500 kPa | 1119.3 ± 4.4 | 1105.4 ± 4.3 | 1088.2 ± 4.2 | 1071.5 ± 4.3 | 1052.7 ± 4.4 | 1034.2 ± 4.5 | 1013.4 ± 4.7 | 993.7 ± 4.9 | 969.2 ± 5.1
1000 kPa | 1119.7 ± 4.4 | 1105.8 ± 4.3 | 1088.6 ± 4.2 | 1071.8 ± 4.3 | 1053.1 ± 4.4 | 1034.6 ± 4.5 | 1013.8 ± 4.7 | 994 ± 4.9 | 969.6 ± 5.1
1500 kPa | 1120.1 ± 4.4 | 1106.1 ± 4.3 | 1089 ± 4.2 | 1072.2 ± 4.3 | 1053.5 ± 4.4 | 1035 ± 4.5 | 1014.1 ± 4.7 | 994.3 ± 5 | 969.8 ± 5
2000 kPa | 1120.4 ± 4.4 | 1106.5 ± 4.3 | 1089.3 ± 4.2 | 1072.6 ± 4.3 | 1053.8 ± 4.4 | 1035.3 ± 4.5 | 1014.4 ± 4.7 | 994.7 ± 4.9 | 970.2 ± 5.1
2500 kPa | 1120.8 ± 4.4 | 1106.9 ± 4.3 | 1089.7 ± 4.2 | 1072.9 ± 4.3 | 1054.2 ± 4.4 | 1035.7 ± 4.5 | 1014.7 ± 4.7 | 995 ± 4.9 | 970.5 ± 5.1
3000 kPa | 1121.2 ± 4.4 | 1107.3 ± 4.3 | 1090.1 ± 4.2 | 1073.3 ± 4.3 | 1054.5 ± 4.4 | 1036 ± 4.5 | 1015.1 ± 4.7 | 995.4 ± 5 | 970.7 ± 5.1
3500 kPa | 1121.6 ± 4.4 | 1107.7 ± 4.3 | 1090.4 ± 4.3 | 1073.6 ± 4.3 | 1054.8 ± 4.4 | 1036.3 ± 4.5 | 1015.4 ± 4.7 | 995.7 ± 5 | 971.1 ± 5.1
4000 kPa | 1122 ± 4.4 | 1108.1 ± 4.3 | 1090.8 ± 4.3 | 1074 ± 4.3 | 1055.2 ± 4.4 | 1036.7 ± 4.5 | 1015.8 ± 4.7 | 996 ± 5 | 971.4 ± 5.1
4500 kPa | 1122.3 ± 4.5 | 1108.4 ± 4.3 | 1091.2 ± 4.3 | 1074.4 ± 4.3 | 1055.5 ± 4.4 | 1037 ± 4.5 | 1016.1 ± 4.7 | 996.4 ± 5 | 971.8 ± 5.1
5000 kPa | 1122.7 ± 4.5 | 1108.8 ± 4.3 | 1091.6 ± 4.3 | 1074.8 ± 4.3 | 1055.9 ± 4.4 | 1037.4 ± 4.5 | 1016.4 ± 4.7 | 996.7 ± 5 | 972.1 ± 5.1
5500 kPa | 1123.1 ± 4.5 | 1109.2 ± 4.4 | 1091.9 ± 4.3 | 1075.1 ± 4.4 | 1056.2 ± 4.4 | 1037.7 ± 4.5 | 1016.8 ± 4.7 | 996.9 ± 5 | 972.3 ± 5.1
6000 kPa | 1123.4 ± 4.5 | 1109.5 ± 4.4 | 1092.3 ± 4.3 | 1075.4 ± 4.4 | 1056.6 ± 4.4 | 1038.1 ± 4.5 | 1017 ± 4.7 | 997.3 ± 5 | 972.6 ± 5.1
6500 kPa | 1123.8 ± 4.5 | 1109.9 ± 4.4 | 1092.6 ± 4.3 | 1075.9 ± 4.4 | 1057 ± 4.5 | 1038.4 ± 4.5 | 1017.5 ± 4.7 | 997.6 ± 5 | 972.9 ± 5.1
7000 kPa | 1124.2 ± 4.5 | 1110.3 ± 4.4 | 1093 ± 4.3 | 1076.2 ± 4.4 | 1057.2 ± 4.4 | 1038.8 ± 4.5 | 1017.8 ± 4.7 | 997.9 ± 5 | 973.3 ± 5.1
7500 kPa | 1124.6 ± 4.5 | 1110.7 ± 4.4 | 1093.4 ± 4.3 | 1076.6 ± 4.4 | 1057.6 ± 4.5 | 1039.1 ± 4.6 | 1018 ± 4.7 | 998.3 ± 5 | 973.6 ± 5.1
8000 kPa | 1124.9 ± 4.5 | 1111 ± 4.4 | 1093.7 ± 4.3 | 1076.9 ± 4.4 | 1057.9 ± 4.5 | 1039.4 ± 4.5 | 1018.4 ± 4.7 | 998.5 ± 5 | 973.9 ± 5.1
8500 kPa | 1125.2 ± 4.5 | 1111.4 ± 4.4 | 1094 ± 4.3 | 1077.2 ± 4.4 | 1058.3 ± 4.5 | 1039.7 ± 4.6 | 1018.7 ± 4.7 | 998.9 ± 5 | 974.2 ± 5.1
9000 kPa | 1125.6 ± 4.5 | 1111.8 ± 4.4 | 1094.4 ± 4.3 | 1077.6 ± 4.4 | 1058.7 ± 4.5 | 1040.1 ± 4.6 | 1019.1 ± 4.7 | 999.2 ± 5 | 974.5 ± 5.1
9500 kPa | 1126 ± 4.6 | 1112.2 ± 4.4 | 1094.8 ± 4.3 | 1078 ± 4.4 | 1059 ± 4.5 | 1040.4 ± 4.6 | 1019.4 ± 4.7 | 999.5 ± 5 | 974.8 ± 5.1
10000 kPa | 1126.4 ± 4.6 | 1112.6 ± 4.5 | 1095.2 ± 4.4 | 1078.4 ± 4.4 | 1059.3 ± 4.5 | 1040.8 ± 4.6 | 1019.7 ± 4.7 | 999.9 ± 5 | 975.2 ± 5.1
10500 kPa | 1126.8 ± 4.6 | 1112.9 ± 4.5 | 1095.5 ± 4.4 | 1078.7 ± 4.4 | 1059.7 ± 4.5 | 1041.1 ± 4.6 | 1020.1 ± 4.7 | 1000.2 ± 5 | 975.5 ± 5.1
10900 kPa | 1127.1 ± 4.6 | – | – | – | – | – | – | – | –
11000 kPa | – | 1113.3 ± 4.5 | 1095.9 ± 4.4 | 1079.1 ± 4.4 | 1060 ± 4.5 | 1041.5 ± 4.6 | 1020.4 ± 4.4 | – | 975.8 ± 5.9
11500 kPa | 1127.4 ± 4.6 | 1113.6 ± 4.5 | 1096.2 ± 4.4 | 1079.4 ± 4.4 | 1060.3 ± 4.5 | 1041.8 ± 4.6 | 1020.7 ± 4.7 | 1000.8 ± 5 | 976.1 ± 5.1
11900 kPa | – | 1113.9 ± 4.5 | – | – | 1060.6 ± 4.5 | – | – | – | –
12000 kPa | 1127.8 ± 4.2 | – | 1096.6 ± 4.4 | 1079.8 ± 4.4 | – | 1042.1 ± 4.6 | 1021.1 ± 4.7 | 1001.2 ± 5 | 976.4 ± 5.1
12500 kPa | 1128.2 ± 4.6 | 1114.3 ± 4.5 | 1096.9 ± 4.4 | 1080.1 ± 4.4 | 1061 ± 4.5 | 1042.4 ± 4.6 | 1021.4 ± 4.7 | 1001.5 ± 5 | 976.7 ± 5.1
12900 kPa | – | – | – | – | – | – | 1021.7 ± 4.8 | – | –
13000 kPa | 1128.5 ± 4.7 | 1114.7 ± 4.5 | 1097.3 ± 4.4 | 1080.4 ± 4.5 | 1061.3 ± 4.5 | 1042.7 ± 4.6 | – | 1001.7 ± 5 | 976.9 ± 5.1
13500 kPa | 1128.9 ± 4.7 | 1115 ± 4.5 | 1097.7 ± 4.4 | 1080.8 ± 4.5 | 1061.6 ± 4.5 | 1043.1 ± 4.6 | 1022 ± 4.8 | 1002.1 ± 5 | 977.2 ± 5.1
13900 kPa | – | 1115.3 ± 4.5 | – | – | 1062 ± 4.5 | – | – | – | –
14000 kPa | 1129.2 ± 4.2 | – | 1097.9 ± 4.4 | 1081.1 ± 4.5 | – | 1043.4 ± 4.6 | 1022.4 ± 4.8 | 1002.3 ± 5 | 977.5 ± 5.1
14400 kPa | – | – | – | 1081.4 ± 4.5 | – | – | 1022.6 ± 4.8 | – | –
14500 kPa | 1129.5 ± 4.7 | 1115.7 ± 4.6 | 1098.2 ± 4.4 | – | 1062.3 ± 4.5 | 1043.7 ± 4.6 | – | 1002.7 ± 5 | 977.8 ± 5.1
15000 kPa | 1129.9 ± 4.7 | 1116 ± 4.6 | 1098.6 ± 4.4 | 1081.8 ± 4.5 | 1062.6 ± 4.5 | 1044 ± 4.6 | 1023 ± 4.8 | 1003 ± 5 | 978.1 ± 5.1
15500 kPa | 1130.3 ± 4.7 | 1116.4 ± 4.6 | 1099 ± 4.5 | 1082.1 ± 4.5 | 1063 ± 4.5 | 1044.4 ± 4.6 | 1023.2 ± 4.8 | 1003.3 ± 5 | 978.4 ± 5.1
16000 kPa | 1130.6 ± 4.7 | 1116.8 ± 4.6 | 1099.2 ± 4.5 | 1082.5 ± 4.5 | 1063.3 ± 4.6 | 1044.6 ± 4.6 | 1023.5 ± 4.8 | 1003.5 ± 5 | 978.7 ± 5.1
16500 kPa | 1130.9 ± 4.7 | 1117.1 ± 4.6 | 1099.6 ± 4.5 | 1082.8 ± 4.5 | 1063.6 ± 4.5 | 1045 ± 4.6 | 1023.8 ± 4.8 | 1003.8 ± 5 | 978.9 ± 5.1
16900 kPa | – | 1117.4 ± 4.6 | – | – | – | – | 1024.1 ± 4.8 | 1004.1 ± 5 | –
17000 kPa | 1131.3 ± 4.3 | – | 1100 ± 4.5 | 1083.1 ± 4.5 | 1063.9 ± 4.6 | 1045.3 ± 4.6 | – | – | 979.3 ± 2.9
17500 kPa | 1131.6 ± 4.8 | 1117.8 ± 4.6 | 1100.3 ± 4.5 | 1083.5 ± 4.5 | 1064.2 ± 4.6 | 1045.6 ± 4.6 | 1024.4 ± 4.8 | 1004.5 ± 5 | 979.5 ± 5.1
17900 kPa | – | – | – | – | 1064.5 ± 4.6 | – | – | – | –
18000 kPa | 1132 ± 4.8 | 1118.1 ± 4.6 | 1100.6 ± 4.5 | 1083.8 ± 4.5 | – | 1045.9 ± 4.6 | 1024.7 ± 4.8 | 1004.9 ± 5 | 979.8 ± 5.2
18500 kPa | 1132.3 ± 4.8 | 1118.4 ± 4.7 | 1100.9 ± 4.5 | 1084.2 ± 4.5 | 1065 ± 4.6 | 1046.3 ± 4.6 | 1025.1 ± 4.8 | 1005.1 ± 5 | 980 ± 5.2
19000 kPa | 1132.8 ± 4.8 | 1118.8 ± 4.7 | 1101.4 ± 4.5 | 1084.5 ± 4.5 | 1065.3 ± 4.6 | 1046.6 ± 4.6 | 1025.4 ± 4.8 | 1005.5 ± 5 | 980.4 ± 5.2
19400 kPa | – | – | 1101.7 ± 4.5 | – | – | – | – | 1005.7 ± 5 | –
19500 kPa | 1133.1 ± 4.9 | 1119.1 ± 4.7 | – | 1084.9 ± 4.6 | 1065.5 ± 4.6 | 1046.9 ± 4.6 | 1025.7 ± 4.8 | – | 980.7 ± 2.9
20000 kPa | 1133.4 ± 4.9 | 1119.5 ± 4.7 | – | 1085.3 ± 4.6 | 1065.9 ± 4.6 | 1047.2 ± 4.6 | 1026.1 ± 4.8 | 1006.1 ± 5 | 981 ± 5.2
20100 kPa | – | – | 1102.2 ± 4.5 | – | – | – | – | – | –
